Results: PubChem BioAssay (NCI)
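Five concentrations, 48 hours, 96-well plates. Definition used: TGI = concentration required for complete inhibition of growth.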

Experiments:
Test in all cases: NCI-60 cell line screen, 48 h
SN12C renal = tested on: SN12C renal
HL-60(TB) leukemia = tested on: HL-60(TB) leukemia
DMS 273 small cell lung = tested on: DMS 273 small cell lung
NCI-H23 lung = tested on: NCI-H23 lung
HOP-92 NSCLC = tested on: HOP-92 NSCLC
A498 renal = tested on: A498 renal
M19-MEL melanoma = tested on: M19-MEL melanoma
DLD-1 colon = tested on: DLD-1 colon
SNB-78 CNS = tested on: SNB-78 CNS
EKVX NSCLC = tested on: EKVX NSCLC
MCF7 breast = tested on: MCF7 breast
XF 498 CNS = tested on: XF 498 CNS
T-47D breast = tested on: T-47D breast
M14 melanoma = tested on: M14 melanoma
DU-145 prostate = tested on: DU-145 prostate
MDA-N = tested on: MDA-N
HS 578T breast = tested on: HS 578T breast
ACHN renal = tested on: ACHN renal
BT-549 breast = tested on: BT-549 breast
DMS 114 small cell lung = tested on: DMS 114 small cell lung

SMILES	TGI (SN12C renal)	TGI (HL-60(TB) leukemia)	TGI (DMS 273 small cell lung)	TGI (NCI-H23 lung)	TGI (HOP-92 NSCLC)	TGI (A498 renal)	TGI (M19-MEL melanoma)	TGI (DLD-1 colon)	TGI (SNB-78 CNS)	TGI (EKVX NSCLC)	TGI (MCF7 breast)	TGI (XF 498 CNS)	TGI (T-47D breast)	TGI (M14 melanoma)	TGI (DU-145 prostate)	TGI (MDA-N)	TGI (HS 578T breast)	TGI (ACHN renal)	TGI (BT-549 breast)	TGI (DMS 114 small cell lung)
CCCCCCSc1nc(N)nc2nc[nH]c12	> 100 µM	60.4 µM	> 100 µM	> 100 µM	72.1 µM	> 100 µM	> 100 µM	> 100 µM	> 100 µM	> 100 µM	> 100 µM	> 89.6 µM								
CCN1c2ccccc2NC(=S)c2c1n[nH]c2-c1ccccc1	> 100 µM	29.9 µM		> 100 µM	> 100 µM					> 100 µM	74.9 µM		74.5 µM	> 100 µM	> 100 µM	32.6 µM	> 100 µM	> 100 µM	> 100 µM	
O=C1CC(/C=C/c2ccco2)=C(O)C1=O	27.7 µM	57.1 µM		27.2 µM	28.4 µM					37.6 µM	21.4 µM		35.8 µM	29.2 µM	32.5 µM	29.7 µM	87.9 µM	34.3 µM	23.6 µM	
CN(C)C(=O)Oc1c(Br)cc(Br)cc1C(=O)OCc1ccccc1	52.8 µM	49.9 µM	> 73.2 µM	> 72.9 µM	42.8 µM	71.4 µM	44.3 µM	> 96.8 µM	> 100 µM	> 100 µM	> 70.3 µM	49.2 µM								53.1 µM
CC1(C)OC[C@H](C(=N)OCc2ccccc2)O1	> 100 µM	> 100 µM	> 100 µM	> 100 µM	> 100 µM	> 100 µM	> 100 µM	> 100 µM	> 100 µM	> 100 µM		> 100 µM		> 100 µM				> 100 µM		> 100 µM
CCOC(=O)c1nc2ccc(OC)cc2c2c1Cc1ccccc1-2	> 100 µM		> 100 µM	> 100 µM			> 100 µM	> 100 µM	> 100 µM					> 100 µM				> 100 µM		> 100 µM
C/C(=N\Nc1nc2cc(Cl)ccc2s1)c1ccccn1	15.2 µM	0.586 µM		25.9 µM	15.4 µM	> 22.6 µM				> 35.5 µM			43.6 µM		> 23.3 µM	> 100 µM	> 100 µM	13.4 µM	> 61.3 µM	
COC1/C=C/C=C(/C)Cc2cc(O)c(Cl)c(c2)N(C)C(=O)CC(OC(=O)C(C)C)C2(C)OC2C(C)C2CC1(O)NC(=O)O2 (configuration not stated)	> 44.7 µM	> 100 µM		< 0.01 µM	> 100 µM					> 100 µM	> 100 µM		> 100 µM			< 0.01 µM	> 100 µM	> 100 µM	49.4 µM	
